These results are taken from patent publication US20180104269A1, “COMPOSITION FOR SUPPRESSING MUSCULAR FATTY CHANGE” (SUNTORY HOLDINGS LIMITED, priority 2015, published 2018).

Data set [1] has as its system myosatellite cells derived from a rat. The data set is described as follows: Oil red-O staining of oil droplets / count of adipocyte-like cells after adipogenic differentiation culture. Format: cell-based. An excerpt: (§1) The gastrocnemial muscle, the soleus, the anterior tibial muscle, the extensor digitorum longus muscle, and the quadriceps femoris muscle were extracted from the Fischer 344 rat of 10 to 14 weeks old under anesthesia, and minced. The above tissues were subjected to enzymolysis with Protease (Sigma-Aldrich) and subjected to centrifugal treatment to obtain a precipitate. The obtained precipitate was suspended in Dulbecco's Modified Eagle Medium (DMEM) containing 10% horse fetus serum, and seeded on an 8-well slide glass (BD Thermo Science) so that the myosatellite cells are 5×10^4 to 7×10^4 cells/mL.
(§2) Myosatellite cells isolated by F-10 containing 20% cow serum (GIBCO) was cultured for 72 h. Then, the cells were cultured for 72 h. in an adipogenic induction medium (Lonza) containing 0.1% DMSO (Control), 5 μM quercetin, 10 μM quercetin or 50 μM quercetin. Then, the cells were cultured for 72 h. in an adipogenic maintenance medium (Lonza) containing the control, 5 μM quercetin, 10 μM quercetin or 50 μM quercetin.
After the cultured cells were washed in PBS, they were fixed by 10% formalin (Wako Pure Chemical Industries, Ltd.) at room temperature for 10 min. Then, they were reacted with 10% oil red-O solution (Sigma Aldrich) that was dissolved in 2-propanol at room temperature for 30 min.

The target in data set [2] is T1, PPARγ (Homo sapiens, UniProt P37231).
T1 sequence (P37231 1-505): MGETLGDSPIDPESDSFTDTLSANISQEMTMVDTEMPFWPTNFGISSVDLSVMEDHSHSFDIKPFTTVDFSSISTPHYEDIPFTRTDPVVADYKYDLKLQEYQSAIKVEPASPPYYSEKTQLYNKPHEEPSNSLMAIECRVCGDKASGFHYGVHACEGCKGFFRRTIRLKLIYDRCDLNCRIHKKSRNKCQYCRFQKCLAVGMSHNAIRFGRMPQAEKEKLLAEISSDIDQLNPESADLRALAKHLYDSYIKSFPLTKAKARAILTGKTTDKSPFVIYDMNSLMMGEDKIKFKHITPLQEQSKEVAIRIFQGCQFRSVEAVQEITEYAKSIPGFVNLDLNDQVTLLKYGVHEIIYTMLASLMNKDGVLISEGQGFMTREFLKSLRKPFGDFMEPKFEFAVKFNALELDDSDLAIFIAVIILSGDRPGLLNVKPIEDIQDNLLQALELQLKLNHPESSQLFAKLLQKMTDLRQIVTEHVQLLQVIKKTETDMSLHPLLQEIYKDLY
The conditions noted are these: read-out: IC50 as PPARγ inhibitor; cited from earlier work.

Data set [3] relates to myosatellite cells derived from a rat. As to the kind of experiment: Quantification of amount of triglyceride in cells after adipogenic differentiation culture. Format: cell-based. Conditions: 5, 10, 50 μM vs 0 μM.
Source text: as §1, §2
After the cells that were subjected to adipogenic differentiation culture were washed with PBS, a PBS that contains 5% Triton-X 100 was added as a cell lysate, and the cell solution was collected, heated and cooled. After the cells were centrifuged, triglyceride and protein in the supernatant were quantified. The LabAssay™ Triglyceride (Wako Pure Chemical Industries, Ltd.) was used for the quantification of triglyceride. The Pierce BCA Protein Assay Kit (Thermo Scientific) was used for the quantification of protein. […] The results were tested using the Dunnett's test, and the value of 5% or lower was determined to be the significant amount (*: p<0.05 vs 0 μM. †: p<0.05 vs 5 μM).

The conditions of data set [4]: cited from earlier work.
Setting [5] is: 5 μM, 72 h adipogenic induction medium then 72 h adipogenic maintenance medium, vs control (0.1% DMSO).
Setting [6] is: 10 μM, 72 h induction then 72 h maintenance medium.
The mark [7] stands for this setting: 50 μM, 72 h induction then 72 h maintenance medium.

`O=C(Nc1ccccc1)c1cc([N+](=O)[O-])ccc1Cl` [GW9662, reference compound]: the “number of adipocyte-like cells stained by oil red-O” value in data set [1] (1 μM, 72 h induction then 72 h maintenance medium) was “did not decrease”; in data set [1] (setting [5]), “did not decrease”; in data set [1] (setting [6]), “did not decrease”. Also, the 50% inhibitory concentration (IC50) in data set [2] is 3.3 nM.

Regarding `O=c1c(O)c(-c2ccc(O)c(O)c2)oc2cc(O)cc(O)c12` [quercetin], in data set [1] (setting [5]), the “number of adipocyte-like cells stained by oil red-O” value is “no significant decrease” and the “oil droplets stained by oil red-O” value is “the same level of oil droplets as the control”. In data set [1] (setting [6]), the “number of adipocyte-like cells stained by oil red-O” value was “decreased” and the “number of oil droplets stained by oil red-O” value is recorded as “decreased in a concentration dependent manner”. For the same molecule, in data set [1] (setting [7]), the “number of adipocyte-like cells stained by oil red-O” value is given as “decreased” and the “number of oil droplets stained by oil red-O” value is recorded as “decreased in a concentration dependent manner”. In addition, in data set [3], the “amount of protein in the cells in the well” value was “did not change” and the “amount of triglyceride corrected by the amount of protein” value is given as “decreased in a quercetin concentration dependent manner”. Further, the “amount of triglyceride in cells after adipogenic differentiation” value in data set [3] (Dunnett's test) is “decreased in a quercetin-concentration dependent manner”. The solubility in water entry in data set [4] is listed as “insoluble to water”.

One may read the IC50 as the midpoint of a concentration-inhibition curve.
